From article PMC12781075, “Crosstalk between arachidonic acid metabolism and glycolysis drives integrated metabolic-inflammatory reprogramming in macrophages” (International Journal of Biological Sciences, 2026)

How the values were obtained:
[1] = target: T1, pyruvate kinase M2 (PKM2) (Mus musculus, UniProt P52480); experiment: ITC; LC/MS/MS peptide mapping of the adduct; CETSA and DARTS in lysates; format: binding
T1 construct: gene Pkm; recombinant mouse PKM2 (pET-28a, E. coli)

[2] = target: T2, PKM2(C49S) (Mus musculus, UniProt P52480, C49S); experiment: ITC (much weaker than wild type); format: binding
T2 construct: gene Pkm; recombinant mouse PKM2 C49S (pET-28a, E. coli)
T2 sequence (P52480 whole entry C49S): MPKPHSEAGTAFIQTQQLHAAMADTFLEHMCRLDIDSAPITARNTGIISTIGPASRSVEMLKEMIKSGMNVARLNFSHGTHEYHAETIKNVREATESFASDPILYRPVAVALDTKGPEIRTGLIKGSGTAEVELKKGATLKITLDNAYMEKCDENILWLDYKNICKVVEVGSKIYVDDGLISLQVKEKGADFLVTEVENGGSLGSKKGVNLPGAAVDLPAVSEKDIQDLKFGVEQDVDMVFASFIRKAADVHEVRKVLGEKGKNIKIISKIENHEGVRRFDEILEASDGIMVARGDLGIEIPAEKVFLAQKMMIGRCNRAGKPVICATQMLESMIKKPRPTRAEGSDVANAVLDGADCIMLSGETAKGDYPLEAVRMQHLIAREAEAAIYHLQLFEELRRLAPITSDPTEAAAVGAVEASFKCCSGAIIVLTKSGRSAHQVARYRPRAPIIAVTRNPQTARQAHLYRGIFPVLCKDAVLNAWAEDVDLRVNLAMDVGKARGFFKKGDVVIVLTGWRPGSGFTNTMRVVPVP

T1 sequence (P52480 whole entry): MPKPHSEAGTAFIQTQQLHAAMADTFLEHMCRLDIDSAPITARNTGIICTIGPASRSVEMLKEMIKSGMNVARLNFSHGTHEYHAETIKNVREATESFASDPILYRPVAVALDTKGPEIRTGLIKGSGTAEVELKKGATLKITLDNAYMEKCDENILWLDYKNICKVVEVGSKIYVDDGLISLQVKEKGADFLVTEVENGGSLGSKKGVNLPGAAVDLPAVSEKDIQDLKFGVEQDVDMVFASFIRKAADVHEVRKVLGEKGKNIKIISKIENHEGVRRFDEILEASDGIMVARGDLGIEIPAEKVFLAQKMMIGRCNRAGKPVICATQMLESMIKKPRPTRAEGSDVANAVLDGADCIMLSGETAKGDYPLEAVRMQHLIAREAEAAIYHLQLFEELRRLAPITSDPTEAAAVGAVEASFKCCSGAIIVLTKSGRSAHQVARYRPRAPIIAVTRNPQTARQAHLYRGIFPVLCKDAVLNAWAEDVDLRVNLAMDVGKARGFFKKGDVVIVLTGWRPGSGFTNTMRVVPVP

## CCCCCC(=O)/C=C/[C@@H]1[C@@H](C/C=C\CCCC(=O)O)[C@@H](O)C[C@H]1O [15-keto-PGF2α]
[1]
  Kd: 0.918 µM
[2]
  Kd: 37.6 µM
